Source: patent US20040197834A1, “Method to increase expression of pgd2 receptors and assays for identifying modulators of prostaglandin d2 receptors” (priority 2001, published 2004)
Entries after “also recorded” stand apart in the source; their conditions may differ.

Key:
HL-60 cells = test: Butyric acid induced differentiation of HL-60 cells, read out as PGD2 binding to membranes; type: cell-based; conditions: 0.4 mM butyric acid for 7 days
Experimental: (§1) For example, referring to FIG. 1, shown therein are the results of a binding assay, specifically the binding of radioactive PGD2 to membranes. The assay measures the amount of labeled […] bound to cell membranes derived from the herein disclosed cell lines. Briefly, AML14.3D10 and […] cell lines are incubated in the absence and/or presence of […] of butyric acid for 7 days. Membranes were thereafter isolated from the cells and used in aforementioned PGD2 binding assays.
(§2) On the first day of the experiment cells are split at 2×10^5 cells/ml and supplemented with 0.4 mM butyric acid. On the fourth day the cells are diluted to 2×10^5 cells/ml and the concentration of butyric acid is adjusted to 0.4 mM. The cells are harvested on the seventh day.
(§3) HL-60 or AML14.3D10 cells are collected by centrifugation for 6 min at 300 g at 4° C., washed with PBS, centrifuged as before and suspended in 10 mM HEPES/KOH pH 7.4, 1 mM EDTA. […]
(§4) Radioligand binding assays are performed in 10 mM HEPES/KOH pH 7.4, 1 mM EDTA containing 10 mM MnCl2 and 0.8 nM [^3H]PGD2, in a final volume of 0.2 ml. […] Non-specific binding is determined in the presence of 10 μM PGD2. […] The filter is then washed with 4 ml of the same buffer and residual radioligand bound to the filter is determined by liquid scintillation counting following equilibration in 5 ml Ultima Gold™ (Packard).

AML14.3D10 cells = test: Butyric acid induced differentiation of AML14.3D10 cells, read out as PGD2 binding to membranes; type: cell-based; conditions: 0.4 mM butyric acid for 7 days
Experimental: as §1, §2, §3, §4

[1] = tested on: PGD2 receptors (CRTH2 and DP) on HL-60 membranes; test: [3H]PGD2 radioligand binding assay on HL-60 cell membranes; conditions: for differentiation-induced increase in PGD2 binding competed away: butyric acid differentiated HL-60, Example 3; for tritiated PGD2 binding on membranes competed away: membranes from butyric acid-differentiated HL-60 cells, 1 uM unlabeled competitor, FIG. 2; for binding of labeled PGD2 to membranes: membranes from undifferentiated HL-60 cells
Experimental: (§5) Membranes were isolated from butyric acid-differentiated HL-60 or undifferentiated AML14.3D10 and used in the PGD2 binding assay in the presence or absence of various 1 uM of non-labeled receptor agonists described here below:
(§6) Specific binding of radioactive PGD2 to the membrane was measured and compared to the value obtained in the absence of competitor (ctrl=100% maximum binding).
(§7) HL-60 or AML14.3D10 cells are collected by centrifugation for 6 min at 300 g at 4° C., washed with PBS, centrifuged as before and suspended in 10 mM HEPES/KOH pH 7.4, 1 mM EDTA. The cells are disrupted by nitrogen cavitation (800 psi for 30 min. on ice) in the presence of protease inhibitors (2 mM AEBSF, 10 μM E-64, 100 μM leupeptin and 0.05 mg/ml pepstatin). Cell membrane is isolated by differential centrifugation at 4° C., first at 1000 g for 10 min then 160 000 g for 30 min. After centrifugation the pellet comprising the cell membrane is suspended in 10 mM HEPES/KOH pH 7.4, 1 mM EDTA, pH 7.4 buffer using Dounce homogenization.
(§8) For these assays, specific receptor binding is defined as total associated radioactivity minus the radioactivity measured in the presence of an excess of unlabeled competing ligand. Where possible, more than one competing ligand is used to define residual nonspecific binding. Ligand binding assays are performed using whole cells or cell membranes derived therefrom.
(§9) Radioligand binding assays are performed in 10 mM HEPES/KOH pH 7.4, 1 mM EDTA containing 10 mM MnCl2 and 0.8 nM [^3H]PGD2, in a final volume of 0.2 ml. The reaction is initiated by the addition of 250 μg of membrane protein, prepared as described above. Ligands in dimethylsulfoxide which is kept constant at 1% (v/v) of the final incubation volume are added. Non-specific binding is determined in the presence of 10 μM PGD2. Incubation is conducted for 60 min. at room temperature and is terminated by rapid filtration through GF/C filters prewetted in cold assay incubation buffer (no EDTA) using a Brandel™ harvester. The filter is then washed with 4 ml of the same buffer and residual radioligand bound to the filter is determined by liquid scintillation counting following equilibration in 5 ml Ultima Gold™ (Packard).

[2] = tested on: PGD2 receptors (CRTH2 and DP) on AML14.3D10 membranes; test: [3H]PGD2 radioligand binding assay on AML14.3D10 cell membranes; conditions: for differentiation-induced increase in PGD2 binding competed away: butyric acid differentiated AML14.3D10, Example 3; for tritiated PGD2 binding on membranes competed away: membranes from nondifferentiated or differentiated AML14.3D10, 1 uM unlabeled competitor, FIG. 2; for binding of labeled PGD2 to membranes: membranes from undifferentiated AML14.3D10 cells
Experimental: as §5, §6, §7, §8, §9

| SMILES | effect of butyric acid treatment on PGD2 binding to membranes (HL-60 cells) | effect of butyric acid treatment on PGD2 binding to membranes (AML14.3D10 cells) | differentiation-induced increase in PGD2 binding competed away [1] | tritiated PGD2 binding on membranes competed away [1] | differentiation-induced increase in PGD2 binding competed away [2] | tritiated PGD2 binding on membranes competed away [2] | binding of labeled PGD2 to membranes [1] | binding of labeled PGD2 to membranes ([1]; listed as 3HPGD2) | binding of labeled PGD2 to membranes [2] | binding of labeled PGD2 to membranes ([2]; listed as 3HPGD2) |
| --- | --- | --- | --- | --- | --- | --- | --- | --- | --- | --- |
| CCCC(=O)O [butyric acid] | significant increase in PGD2 binding; also recorded: acquired the capacity to bind | significant increase in PGD2 binding; also recorded: increased binding of PGD2 | – | – | – | – | – | – | – | – |
| O=C(O)CCCCCCC1C(=O)NC(=O)N1CCC(O)C1CCCCC1 (centres unmarked) [BW245C] | – | – | about 10% | about 10% | about 10% | about 10% | – | – | – | – |
| CCCCC[C@H](O)/C=C/[C@H]1C(=O)C[C@H](O)[C@@H]1C/C=C\CCCC(=O)O [PGD2, Prostaglandin D2] | – | – | – | – | – | – | minimal amount of PGD2 binding | does not bind | appreciable level of PGD2 binding | significant level of binding |
| CCCCCC(=O)CCC1C(=O)CC(O)C1C/C=C\CCCC(=O)O (centres unmarked) [DK-PGD2, 13,14-dihydro-15-keto-PGD2] | – | – | About 90% | about 90% | About 90% | about 90% | – | – | – | – |
